For assay [1], the system named is MAPKs (p38, ERK, and JNK). In words: MAPK phosphorylation after oxidative stress (Western blotting). In kind it is cell-based, rat. To be noted: for phosphorylation of the MAPKs p38, ERK, and JNK: 10 minutes after treatment.
Experimental: Western blotting was performed by a standard method.
Downstream signals of oxidative stress were studied. The involvement of MAPKs (p38, ERK, and JNK) in the downstream system of signals induced by reactive oxygen species was analyzed. […] Protein extraction and Western blotting were performed in the same way as in the experiment using the animal models described above.
Detection was performed using an anti-p38 antibody, an anti-phosphorylated p38 antibody, an anti-JNK antibody, an anti-phosphorylated JNK antibody, an anti-ERK antibody, an anti-phosphorylated ERK antibody, an anti-NF-KB p65 antibody, an anti-phosphorylated NF-κB p65 antibody, or an anti-β-actin antibody (all manufactured by Cell Signaling Technology, Inc.) as a primary antibody, a HRP-conjugated goat anti-rabbit antibody (manufactured by Sigma-Aldrich Co. LLC) as a secondary antibody, and ECL Western Blotting Detection Reagent.
Likewise, downstream signals of oxidative stress were studied by the addition of BSO. Annulus fibrosus cells were treated with 1 mM BSO, collected 0, 5, 10, 30, or 60 minutes later, and analyzed by Western blotting.
Assay [2] deals with rat annulus fibrosus cells. In words: Alteration in gene expression by oxidative stress inducers (RT-PCR). The class given is cell-based. To be noted: 24 hours. The protocol: (§1) Total RNA was prepared using RNeasy Mini kit (manufactured by Qiagen N.V.) or TRIzol Reagent (manufactured by Thermo Fisher Scientific Inc.). cDNA was synthesized using Prime Script RT Reagent Kit (manufactured by Takara Bio Inc.).
(§2) RT-PCR amplification was performed with Thermal Cycler Dice Real-Time System (manufactured by Takara Bio Inc.) using SYBR Premix Ex Taq (manufactured by Takara Bio Inc.). Expression was normalized to β-actin or hypoxanthine phosphoribosyl transferase (HPRT). The results were analyzed by the ddCt method.
(§3) The PCR primers used were as follows: • TNF-α (F) : 5'-[…]-3' (SEQ ID NO: 1) (R) : 5'-[…]-3' (SEQ ID NO: 2) • MMP-3 (F) : 5'-[…]-3' (SEQ ID NO: 3) (R) : 5'-[…]-3' (SEQ ID NO: 4) • COX-2 (F) : 5'-[…]-3' (SEQ ID NO: 5) (R) : 5'-[…]-3' (SEQ ID NO: 6) • AGC1 (F) : 5'-[…]-3' (SEQ ID NO: 7) (R) : 5'-[…]-3' (SEQ ID NO: 8) • β-actin (F) : 5'-[…]-3' (SEQ ID NO: 9) (R) : 5'-[…]-3' (SEQ ID NO: 10) • HPRT (F) : 5'-[…]-3' (SEQ ID NO: 11) (R) : 5'-[…]-3' (SEQ ID NO: 12)
(§4) Rat annulus fibrosus cells were prepared as follows: rat annulus fibrosus tissues were dissected from the lumbar and coccyx intervertebral discs of 8-week-old female Wistar rats, treated with DMEM containing 0.04% pronase E (manufactured by SERVA Electrophoresis GmbH) at 37°C for 1 hour, and subsequently treated with 0.025% collagenase P (manufactured by Roche Diagnostics K.K.) at 37°C for 4 hours for isolation. The isolated cells were washed with Dulbecco's modified Eagle's medium (DMEM, manufactured by Invitrogen Corp.) containing 5% heat-inactivated fetal bovine serum (manufactured by JRH Biosciences Lenexa). The isolated annulus fibrosus cells were cultured in DMEM containing 10% fetal bovine serum and 1% penicillin-streptomycin under conditions of 5% CO2 at 37°C. The cells were used within the first five passages for analysis.
Rat annulus fibrosus cells were cultured in a medium added with hydrogen peroxide (concentration: 10 µM and 100 µM) or BSO (concentration: 0.2 mM and 1 mM) for 24 hours and collected. RNA was extracted, and the mRNA expression of TNF-α, MMP-3, COX-2, and aggrecan was quantitatively measured by RT-PCR. RNA extraction and RT-PCR were performed in the same way as in the model animals described above.

The subject of assay [3] is rat annulus fibrosus cells. Put plainly: Intracellular level of reactive oxygen species (MitoTracker Orange staining, cell sorter). In kind it is cell-based. Here is the method:
as §4

A further assay concerns MAPK signaling cascade. Put plainly: Effect on MAPK signaling cascade activation caused by TNF-α (Western blotting). In kind it is cell-based, rat. To be noted: 50 ng/ml TNF-α in the presence of 100 µM NAC. The protocol: NAC was also analyzed for whether to suppress phosphorylation in the MAPK signaling cascade generating downstream signals of oxidative stress (Figure 6E). In the same way as above, cells were treated with 50 ng/ml TNF-α in the presence of 100 µM NAC and analyzed by Western blotting.

For assay [4], the system named is intervertebral disc degeneration models. Put plainly: Rat caudal intervertebral disc puncture model, therapeutic administration, T2-weighted MRI. The class given is in vivo, Wistar rats. The protocol:
The involvement of oxidative stress in intervertebral disc degeneration was studied. The caudal intervertebral discs of 8-week-old Wistar rats were punctured using a 23-G needle to prepare intervertebral disc degeneration models. A group that underwent only development without puncture (sham group) was used as a control group. Two months after the puncture, the T2 intramedullary high-intensity area was measured by MRI (GE Sigma Excite HD 1.5T, manufactured by GE Healthcare Corp.) under the following conditions: TR/TE, 3000/86; echo train length, 12; slice thickness, 2 mm; FOV, 10 cm; matrix size 352X224; NEX, 10 times.
The caudal intervertebral discs of 8-week-old female Wistar rats were punctured using a 23-G needle to prepare intervertebral disc degeneration models. The animals were divided into a group given NAC water (1 g/L) from 1 week after the puncture (NAC group) and a group raised with normal water (puncture group). A group that underwent only development without puncture (control group) was used as a control. Whether or not the administration of NAC would suppress intervertebral disc degeneration was studied 2 months after the puncture (see Figure 7A). The average body weight of the rats during the administration of NAC water was 220 g, and the average water intake of 24 hours was 35 g; thus, the rats took 159 mg/kg/day of NAC on average per day. The items to be studied were histological evaluation and a T2 intramedullary high-intensity area by MRI.
(§5) The present inventors prepared rat intervertebral disc degeneration models in the same way as above and conducted QSI analysis. Here, the QSI analysis was conducted using our uniquely developed program, though the analysis can employ software such as dTV II FZR. A puncture group, a NAC group, and a control group each involving 5 rats were subjected to the respective procedures and analyzed. […] The comparison of analysis results among the control group (a and d), the puncture group (b and e), and the NAC group (c and f) is shown.

Assay [5] deals with intervertebral disc degeneration. To be noted: procedures for causing degeneration carried out after 1-week oral administration; Non Patent Literature 5; cited from earlier work.
Assay [6] concerns rat annulus fibrosus cells. Put plainly: Effect of antioxidants on gene expression under oxidative stress induced by hydrogen peroxide or BSO (RT-PCR). The class given is cell-based. To be noted: 24 hours. The protocol: as §1, §2, §3
100 µM hydrogen peroxide or 1 mM BSO was added to rat annulus fibrosus cells in the presence of 100 µM NAC, and the cells were cultured for 24 hours, followed by the measurement of the mRNA expression of TNF-α, MMP-3, COX-2, and aggrecan (Figures 4A and 4B).
Hydrogen peroxide or BSO was added to rat annulus fibrosus cells in the presence of 20 mM α-tocopherol, and the cells were cultured for 24 hours, followed by the measurement of the mRNA expression of TNF-α, MMP-3, COX-2, and aggrecan (Figures 5A and 5B). Here, ethanol was used as a solvent for α-tocopherol. Cells cultured in a medium added only with ethanol were used as a control.

The subject of assay [7] is rat annulus fibrosus cells. In words: Effect of antioxidants on oxidative stress induced by TNF-α (gene expression by RT-PCR). The class given is cell-based. To be noted: 24 hours. Here is the method: Next, NAC or tocopherol was analyzed for whether to reduce oxidative stress induced by TNF-α by its addition. 50 ng/ml of TNF-α was added to cells in the presence of 100 µM NAC or 20 mM α-tocopherol, and the cells were collected 24 hours later, followed by gene expression analysis on MMP-3, COX-2, and aggrecan by RT-PCR (Figures 6C and 6D). NAC and tocopherol were also shown to suppress oxidative stress induced by the addition of TNF-α.

Assay [8] concerns intervertebral disc degeneration models. In words: Rat caudal intervertebral disc puncture model, Q-space imaging (QSI) analysis. In kind it is in vivo. The protocol:
as §5

For another assay, the system named is COX-2 mRNA expression. Put plainly: Effect of MAPK inhibitors on COX-2 gene expression under oxidative stress (RT-PCR). In kind it is cell-based, rat. To be noted: MAPK inhibitor 10 µM, 30 minutes later 100 µM hydrogen peroxide or 1 mM BSO; RT-PCR 24 hours later. Here is the method: Hydrogen peroxide or BSO was added to rat annulus fibrosus cells in the presence of MAPK inhibitors, and their effects on an increase in COX-2 mRNA expression were analyzed. The MAPK inhibitors used were PD98059 (ERK inhibitor; represented by PD in Figure 3), SP600125 (JNK inhibitor; represented by SP in Figure 3), and SB203580 (p38 inhibitor; represented by SB in Figure 3) (all manufactured by Wako Pure Chemical Industries, Ltd.). These MAPK inhibitors were each added at concentration of 10 µM to a medium, and 30 minutes later, 100 µM hydrogen peroxide or 1 mM BSO was added thereto. The expression of COX-2 was analyzed by RT-PCR 24 hours later.

The mark [9] stands for this setting: puncture group versus NAC group.
Where [10] appears, read: 100 µM NAC, 100 µM hydrogen peroxide or 1 mM BSO.
Where [11] appears, read: hydrogen peroxide 10 µM and 100 µM.
[12] abbreviates: 20 mM α-tocopherol, hydrogen peroxide or BSO, ethanol control.

With `CCCCS(=N)(=O)CCC(N)C(=O)O` (stereo not drawn) [BSO, buthionine sulfoximine], the “phosphorylation of the MAPKs p38, ERK, and JNK” value in assay [1] (1 mM BSO) was “strongly phosphorylated”. For the same compound, in assay [2] (BSO 0.2 mM and 1 mM), the “mRNA expression of COX-2” value was “concentration-dependent increase”, the “mRNA expression of MMP-3” value is listed as “concentration-dependent increase”, the “mRNA expression of TNF-α” value is “concentration-dependent increase” and the “mRNA expression of aggrecan” value is “reduced in a concentration-dependent manner”. The “intracellular level of reactive oxygen species” value in assay [3] (1 mM BSO for 24 hours) is given as “increase”.
Regarding `CC(=O)N[C@@H](CS)C(=O)O` [NAC, N-acetylcysteine], the “activation of the MAPK signaling cascade caused by stimulation with TNF-α” value with MAPK signaling cascade is recorded as “suppressed”. In addition, the “effect of administration in an experiment using rats” value in [4] (159 mg/kg/day) is reported as “effective”. Besides, in assay [4] (5 rats per group), the “T2-weighted images, difference between the puncture group and the NAC group” value was “rarely showed the difference”. Further, in [4] (NAC water (1 g/L, 159 mg/kg/day) from 1 week after puncture, MRI 2 months after puncture, NAC group compared with puncture group), the T2 high-intensity area result is on record as “significantly improved”. In assay [4] (setting [9]), the “T2 mapping values obtained from T2-weighted images focused on the nucleus pulposus” value is given as “did not significantly differ”. Also, the intervertebral disc degeneration entry in assay [5] was “prevented”. Moreover, in assay [6] (setting [10]), the “increase in the expression of COX-2 by oxidative stress” value is “significantly suppressed”, the “increase in the expression of MMP-3 by oxidative stress” value is on record as “significantly suppressed”, the “increase in the expression of TNF-α by oxidative stress” value is listed as “significantly suppressed” and the “reduction in the expression of aggrecan by oxidative stress” value is “suppressed”. Moreover, the “oxidative stress induced by the addition of TNF-α (gene expression of MMP-3, COX-2, and aggrecan)” value in assay [7] (50 ng/ml TNF-α in the presence of 100 µM NAC) is given as “suppress”. For the same compound, in [1] (100 µM hydrogen peroxide in the presence of 100 µM NAC, 15 minutes), the “phosphorylation of p38 MAPK” value is reported as “significantly suppressed”. Besides, the “QSI analysis (probability at zero displacement), difference between the puncture group and the NAC group” value in assay [8] (5 rats per group) is listed as “showed the difference”. Besides, the QSI parameter values result in assay [8] (setting [9]) is given as “significant difference”.
On to `COc1cccc(-c2cc(=O)c3ccccc3o2)c1N` [PD], for which the “expression of COX-2” value in the assay with COX-2 mRNA expression is on record as “significantly suppressed”.
The same measure, in the same setting: then `C[S+]([O-])c1ccc(-c2nc(-c3ccncc3)c(-c3ccc(F)cc3)[nH]2)cc1` (stereo not drawn) [SB], with “significantly suppressed”.
As for `OO` [hydrogen peroxide], the “phosphorylation of the MAPKs p38, ERK, and JNK” value in assay [1] (100 µM hydrogen peroxide) is “strongly phosphorylated”. Also, in [2] (setting [11]), the “mRNA expression of COX-2” value was “concentration-dependent increase”, the “mRNA expression of MMP-3” value is given as “concentration-dependent increase”, the “mRNA expression of TNF-α” value is reported as “concentration-dependent increase” and the “mRNA expression of aggrecan” value is given as “reduced in a concentration-dependent manner”. Further, in [3] (100 µM hydrogen peroxide for 24 hours), the “intracellular level of reactive oxygen species” value is “increase”.
Turning to `Cc1c(C)c2c(c(C)c1O)CCC(C)(CCCC(C)CCCC(C)CCCC(C)C)O2` (stereo not drawn) [α-tocopherol], in assay [6] (setting [12]), the “increase in the expression of COX-2 by oxidative stress” value was “significantly suppressed”, the “increase in the expression of MMP-3 by oxidative stress” value is listed as “significantly suppressed”, the “increase in the expression of TNF-α by oxidative stress” value is “significantly suppressed” and the “reduction in the expression of aggrecan by oxidative stress” value is recorded as “suppressed”. Besides, the “oxidative stress induced by the addition of TNF-α (gene expression of MMP-3, COX-2, and aggrecan)” value in assay [7] (50 ng/ml TNF-α in the presence of 20 mM α-tocopherol) is “suppress”.

The values are drawn from patent publication EP3360574B1, “MEDICINAL COMPOSITION FOR AMELIORATING AND TREATING INTERVERTEBRAL DISC DEGENERATION AND LOW BACK PAIN, AND METHOD FOR SCREENING THERAPEUTIC AGENT” (Keio University, priority 2015, dated 2017).
